Assay results: ChEMBL document CHEMBL5149985, “Discovery of cytotoxic natural products from Red Sea sponges: Structure and synthesis” (Eur J Med Chem, 2021)
One block for each compound: values may come before it.

Tests used:
[1] = test system: HT-29; assay: Anticancer activity against human HT-29 cells assessed as cell growth inhibition by crystal violet staining based assay; assay type: functional
[2] = test system: OVCAR-3; assay: Anticancer activity against human OVCAR-3 cells assessed as cell growth inhibition by crystal violet staining based assay; assay type: functional
[3] = test system: MM1.S; assay: Anticancer activity against human MM1.S cells assessed as cell growth inhibition by MTT assay; assay type: functional, cell-based
[4] = test system: MCF7; assay: Anticancer activity against human MCF7 cells assessed as inhibition of cell growth by MTT assay; assay type: functional, cell-based
[5] = test system: HCT-116; assay: cells; conditions: Homo sapiens
Description: Anticancer activity against human HCT-116 cells assessed as inhibition of cell growth by MTT assay

[6] = test system: HepG2; assay: cells; conditions: Homo sapiens
Description: Anticancer activity against human HepG2 cells assessed as inhibition of cell growth by MTT assay

[7] = test system: MCF7; assay: Anticancer activity against human MCF7 cells assessed as inhibition of cell growth; assay type: functional, cell-based
[8] = test system: HepG2; assay: Anticancer activity against human HepG2 cells assessed as inhibition of cell growth; assay type: functional, cell-based
[9] = test system: P388; assay: Anticancer activity against mouse P388 cells assessed as inhibition of cell growth; assay type: functional, cell-based
[10] = test system: MDA-MB-231; assay: Anticancer activity against human MDA-MB-231 cells assessed as cell viability measured after 24 hrs by MTT assay; assay type: functional, cell-based; conditions: MDA-MB-231, 24 h
[11] = test system: HeLa; assay: Antiproliferative activity against human HeLa cells assessed as cell viability measured after 24 hrs by MTT assay; assay type: functional, cell-based
[12] = test system: HCT-116; assay: Antiproliferative activity against human HCT-116 cells assessed as cell viability measured after 24 hrs by MTT assay; assay type: functional, cell-based; conditions: HCT-116, 24 h
[13] = test system: L5178Y; assay: Anticancer activity against mouse L5178Y assessed as cell growth inhibition by [3H]-thymidine assay; assay type: functional, cell-based
[14] = test system: L5178Y; assay: Anticancer activity against mouse L5178Y assessed as cell growth inhibition by [3H]-thymidine assay relative to control; assay type: functional
[15] = test system: BT-474; assay: Anticancer activity against human BT-474 cells assessed as cell growth inhibition incubated for 48 hrs by MTT assay; assay type: functional, cell-based; conditions: BT-474, 48 h
[16] = test system: HeLa; assay: Anticancer activity against human HeLa cells assessed as inhibition of cell growth; assay type: functional, cell-based
[17] = test system: Daoy; assay: Anticancer activity against human Daoy cells assessed as inhibition of cell growth; assay type: functional, cell-based
[18] = test system: A549; assay: Anticancer activity against human A549 cells assessed as cell growth inhibition; assay type: functional, cell-based
[19] = test system: PC-3; assay: Anticancer activity against human PC-3 cells assessed as inhibition of cell growth; assay type: functional, cell-based
[20] = test system: P388; assay: Anticancer activity against mouse P388 cells assessed as inhibition of cell growth by dilution assay; assay type: functional, cell-based
[21] = test system: A549; assay: Anticancer activity against human A549 cells assessed as inhibition of cell growth by dilution assay; assay type: functional, cell-based
[22] = test system: HT-29; assay: Anticancer activity against human HT-29 cells assessed as inhibition of cell growth by dilution assay; assay type: functional, cell-based
[23] = test system: P388; assay: Anticancer activity against mouse P388 cells assessed as reduction in cell growth; assay type: functional, cell-based
[24] = test system: MDA-MB-231; assay: Antiproliferative activity against human MDA-MB-231 cells assessed as cell growth inhibition incubated for 72 hrs by SRB assay; assay type: functional, cell-based; conditions: MDA-MB-231, 72 h
[25] = test system: A549; assay: Antiproliferative activity against human A549 cells assessed as cell growth inhibition incubated for 72 hrs by SRB assay; assay type: functional, cell-based; conditions: A549, 72 h
[26] = test system: HT-29; assay: Antiproliferative activity against human HT-29 cells assessed as cell growth inhibition incubated for 72 hrs by SRB assay; assay type: functional, cell-based; conditions: HT-29, 72 h
[27] = test system: MCF7; assay: Anticancer activity against human MCF7 cells assessed as inhibition of cell growth incubated for 24 hrs by MTT assay; assay type: functional, cell-based; conditions: MCF7, 24 h
[28] = test system: A549; assay: Anticancer activity against human A549 cells assessed as inhibition of cell growth incubated for 24 hrs by MTT assay; assay type: functional, cell-based; conditions: A549, 24 h
[29] = test system: A549; assay: Anticancer activity against human A549 cells assessed as inhibition of cell growth; assay type: functional, cell-based
[30] = test system: HT-29; assay: Anticancer activity against human HT-29 cells assessed as inhibition of cell growth; assay type: functional, cell-based
[31] = test system: P388; assay: Anticancer activity against mouse P388 cells assessed as cell growth inhibition; assay type: functional, cell-based
[32] = test system: HT-29; assay: Anticancer activity against human HT-29 cells assessed as cell growth inhibition; assay type: functional, cell-based

- IC50 [1]: 8 µM
- IC50 [2]: 7 µM
- IC50 [3]: 9 µM
SMILES: O=C1Nc2ccc(Br)cc2[C@@]1(c1cc2ccccc2[nH]1)c1c[nH]c2ccccc12

- IC50 [4]: 0.0024 µM
- IC50 [5]: 0.0006 µM
- IC50 [6]: 0.0047 µM
SMILES: CC(=O)O[C@H]1C[C@@H]2[C@@]3(C)CCCC(C)(C)[C@@H]3CC[C@@]2(C)[C@@H]2CC=C(C(C)=O)[C@@H]3[C@H](O)C[C@@]132

- IC50 [7]: 29.8 µM
- IC50 [8]: 21.3 µM
SMILES: CCCCCCCC/C=C\CCCCCCC[C@@H](O)C(=O)N[C@@H](CO)[C@H](O)[C@H](O)CCCCCCCCCCCCCCCCCCC

- IC50 [1]: 12.5 µM
- IC50 [2]: 9 µM
- IC50 [3]: 11 µM
SMILES: O=C1Nc2cc(Br)ccc2[C@@]1(c1cc2ccccc2[nH]1)c1c[nH]c2ccccc12

- IC50 [4]: 0.0029 µM
- IC50 [5]: 0.0029 µM
- IC50 [6]: 0.0038 µM
SMILES: CC[C@@]1(C)CCC[C@]2(C)[C@H]3C[C@H](OC(C)=O)[C@]45C[C@@H](O)[C@H]4C(C(C)=O)=CC[C@H]5[C@]3(C)CC[C@@H]12

- IC50 [7]: 11.7 µM
SMILES: C#C/C=C\CCCCC#CC#CCCCCCC#CCO

- IC50 [9]: > 0.004 µM
SMILES: CO[C@@]1(C)CCC(C(C)C)=C[C@@H]2[C@H]1CC[C@]2(C)O

- IC50 [8]: 16.3 µM
SMILES: C/C1=C/C(=O)O[C@@H]2C[C@@H](CC[C@H](C)/C=C\CC1)O[C@@](O)([C@@H]1CS(=O)(=O)C(=O)N1O)C2

- IC50 [10]: 3.9 µM
- IC50 [11]: 8.5 µM
- IC50 [12]: 8.5 µM
SMILES: COC1=C(Br)C[C@]2(OC=C1Br)ON=C(C(=O)NCCCOc1c(Br)cc(CCN)cc1Br)[C@@H]2O [PSAMMAPLYSIN A]

SMILES: O=Cc1c[nH]c2ccccc12 [3-FORMYLINDOLE]
- IC50 [13]: 0.069 µM
- inhibition (INH) [14]: 53%

SMILES: O[C@]12CCCCCC[C@@H]3CCN4CCC[C@@H](CCCCCC[C@@H]5CCN(CCC1)[C@H]2O5)[C@@H]4O3
- IC50 [15]: 9.3 µM

- IC50 [16]: 0.138 µM
SMILES: O=C(O)CCCC#C/C=C/CC/C=C/C#C/C=C/Br
- IC50 [17]: 0.0765 µM

SMILES: C=C1CCC[C@@H]2[C@@](C)(CC[C@@]3(C)CC[C@@H]([C@H](C)C(=O)O)OO3)[C@H](C)CC[C@@]12C
- IC50 [18]: 24 µM
- IC50 [7]: 36 µM
- IC50 [19]: 44 µM

- IC50 [20]: 0.0022 µM
- IC50 [21]: 0.0022 µM
- IC50 [22]: > 0.0022 µM
SMILES: CC(=O)O[C@H]1CC[C@]2(C)[C@H]3C[C@@H](O)[C@]4(C)C5=C(CC[C@H]4[C@]3(C)CC[C@H]2C1(C)C)COC5=O

- IC50 [16]: 0.0535 µM
- IC50 [8]: 0.0412 µM
SMILES: O=C(O)CCCC#CC#C/C=C/CCCCCCC=C(Br)Br
- IC50 [17]: 0.0356 µM

- IC50 [23]: < 0.0016 µM
SMILES: CC(=O)Oc1c(O)ccc(O)c1C[C@]1(C)[C@@H](C)CC[C@]2(C)C(C)=CCC[C@@H]12

- IC50 [16]: 0.0865 µM
SMILES: O=C(O)CCCCCC#C/C=C/CCCCC#C/C=C/Br
- IC50 [17]: 0.0658 µM

- IC50 [24]: 25 µM
- IC50 [25]: 30 µM
- IC50 [26]: 28 µM
SMILES: O=C(O)c1cnc(-c2c[nH]c3cc(O)ccc23)c2[nH]c3ccc(O)cc3c12

- IC50 [27]: 18 µM
- IC50 [28]: 24.2 µM
SMILES: C#C/C=C\CCCCCCCCCCC#CCCC(=O)NCCc1ccccc1

- IC50 [23]: 0.03 µM
SMILES: CC(=O)OC1=C(C[C@]2(C)[C@@H](C)CC[C@]3(C)C(C)=CCC[C@@H]23)C(=O)C=CC1=O

SMILES: CC1=C(CCC(C)(O)/C=C/C[C@@]2(C)CC[C@H]([C@@H](C)C(=O)O)OO2)C(C)(C)CCC1 (stereo partly drawn)
- IC50 [29]: > 0.0024 µM
- IC50 [9]: > 0.0024 µM
- IC50 [30]: > 0.0024 µM

SMILES: CC(=O)CCCC(C)(C)C(=O)CC/C(C)=C/CC[C@@]1(C)CC[C@H]([C@H](C)C(=O)O)OO1 [AIKUPIKOXIDE A]
- IC50 [31]: ≥ 1 mg/L
- IC50 [18]: ≥ 1 mg/L
- IC50 [32]: ≥ 1 mg/L

- IC50 [4]: 0.0046 µM
- IC50 [5]: 0.0027 µM
- IC50 [6]: 0.0026 µM
SMILES: CC(=O)O[C@H]1C[C@H]2[C@@](C)(CCC3C(C)(C)CCC[C@@]32C)[C@@H]2C[C@@H](OC(C)=O)C(C(C)=O)=C[C@@]12C (stereo partly drawn)

- IC50 [23]: > 0.054 µM
SMILES: COC1=CC(=O)C(C[C@]2(C)[C@@H](C)CC[C@]3(C)C(C)=CCC[C@@H]23)=C(O)C1=O
